This is an account of results in patent US8470811B2, “Substituted heterocyclylbenzylpyrazoles and use thereof” (Bayer Intellectual Property GmbH, priority 2010, dated 2013).

Data set [1] can be described thus: Pharmacokinetic parameters after peroral administration in rats. It is filed as in vivo. The following applies: for half-life: rat, plasma, po. How it is done: (§1) The substance to be examined was administered to animals (for example mice or rats) intravenously as a solution (for example in corresponding plasma with a small addition of DMSO or in a PEG/ethanol/water mixture), and peroral administration was effected as a solution (for example in Solutol/ethanol/water or PEG/ethanol/water mixtures) or as a suspension (e.g. in tylose), in each case via a gavage. After administration of the substance, blood was taken from the animals at fixed times. The blood was heparinized, then plasma was obtained therefrom by centrifugation. The substance was quantified analytically in the plasma via LC-MS/MS. From the plasma concentration/time plots determined in this way, using an internal standard and with the aid of a validated computer program, the pharmacokinetic parameters, such as AUC (area under the concentration/time curve), Cmax (maximum plasma concentration), t1/2 (half life), VSS (distribution volume) and CL (clearance), and the absolute and relative bioavailability F and Frel (i.v./p.o. comparison or comparison of suspension to solution after p.o. administration), were calculated.
To determine the active ingredient release from a prodrug compound, the prodrug was administered either intravenously or perorally, as described above, and the concentrations both of the prodrug and of the active ingredient released were quantified in the processed plasma.
The substance to be examined was administered perorally to rats, in each case in amounts between 1 and 3 mg/kg as a solution in Solutol/ethanol/water (40:10:50 or 40:20:40). The kinetic parameters determined for Working Example 1 are shown below by way of example for the inventive compounds [AUCnorm=dose-normalized exposure (area under the concentration/time curve)]:
The second row in this table gives the pharmacokinetic parameters for Example 1, as obtained after peroral administration of the prodrug compound from Example 15 (1 mg/kg of crystalline substance as a tylose suspension in water).

The nature of data set [2]: Pharmacokinetic parameters after intravenous administration in rats. Type of data set: in vivo. To be noted: for half-life / Vd / clearance: rat, iv, 0.3-1.0 mg/kg, solution in plasma with up to 2% DMSO; for Vd: read-out: VSS; for clearance: read-out: CLplasma (converted). How it is done: as §1
The substance to be examined was administered intravenously to rats, in each case in amounts between 0.3 and 1.0 mg/kg as a solution in plasma which contained up to 2% DMSO.

Data set [3] in a line: pH-dependent hydrolysis stability. Type of data set: physicochemical. How it is done: 0.3 mg of the test substance (prodrug) was weighed into a 2 ml HPLC vial, and 0.6 ml of acetonitrile or acetonitrile/DMSO mixture (with up to 20 percent by volume of DMSO) was added. To dissolve the substance, the sample vessel was placed into an ultrasound bath for approx. 10 seconds. Subsequently, 1.0 ml of the particular aqueous buffer solution was added (commercially available buffer solutions of pH 2, 4, 6.5, 8 and 10) and the sample was treated again in the ultrasound bath. Over a period of 24 hours at 37° C., 5 μl of the sample solution were analysed by HPLC every hour for its content of unchanged prodrug or active ingredient released therefrom by hydrolysis. Quantification was effected via the area percentages of the corresponding HPLC peaks.

Where [4] appears, read: rats, 1-3 mg/kg, solution in Solutol/ethanol/water.
[5] abbreviates: rats, p.o., 1-3 mg/kg, solution in Solutol/ethanol/water.

`Cc1ccc(Cn2nc(-c3nc(-c4ccc(OC(F)(F)F)cc4)no3)cc2C)cc1` [Example 1 in WO 2008/141731-A2, 5-[5-methyl-1-(4-methylbenzyl)-1H-pyrazol-3-yl]-3-[4-(trifluoromethoxy)phenyl]-1,2,4-oxadiazole, reference compound]: in data set [1] (setting [4]), the half-life is 29 h. In data set [1] (setting [5]), this compound registered an AUCnorm of 1.9 kg·h/L and an F of 74%. Moreover, in data set [2] (intravenous administration), the CLplasma was determined as 0.4 I/h/kg. Also, in data set [2], the half-life was 30 h and the Vd is 6.9 L/kg.
With `Cc1cc(-c2nc(-c3ccc(OC(F)(F)F)cc3)no2)nn1Cc1cccc(N2CC(O)C2)c1` [Example 1, 1-{3-[(5-Methyl-3-{3-[4-(trifluoromethoxy)phenyl]-1,2,4-oxadiazol-5-yl}-1H-pyrazol-1-yl)methyl]phenyl}azetidin-3-ol], the AUCnorm in data set [1] (Example 1 in rat plasma after p.o. administration of prodrug Example 15, 1 mg/kg crystalline substance as tylose suspension in water) amounted to 0.35 kg·h/L. The compound also gave a half-life in data set [1] (setting [4]) of 12 h. In data set [1] (setting [5]), this compound showed an AUCnorm of 0.43 kg·h/L and an F of 68%. In addition, in data set [2], the half-life is 6.8 h, the clearance is 26.7 mL/min/kg and the Vd was determined as 12 L/kg.
For `Cc1cc(-c2nc(-c3ccc(SC(F)(F)F)cc3)no2)nn1Cc1cccc(N2CCC(O)CC2)c1` [Example 14, 1-(3-{[5-Methyl-3-(3-{4-[(trifluoromethyl)sulphanyl]phenyl}-1,2,4-oxadiazol-5-yl)-1H-pyrazol-1-yl]methyl}phenyl)piperidin-4-ol], in data set [2], the half-life was 8.2 h, the clearance was 12 mL/min/kg and the Vd stood at 7.8 L/kg.
As for `Cc1cc(-c2nc(-c3ccc(OC(F)(F)F)cc3)no2)nn1Cc1cccc(N2CC(OC(=O)CN(C)C)C2)c1` [Example 15, 1-{3-[(5-Methyl-3-{3-[4-(trifluoromethoxy)phenyl]-1,2,4-oxadiazol-5-yl}-1H-pyrazol-1-yl)methyl]phenyl}azetidin-3-yl N,N-dimethylglycinate], the “% Example 15 prodrug” value in data set [3] (pH 2, 37° C., 12 h) turned out to be 89%; in data set [3] (pH 4, 37° C., 12 h), 89%; in data set [3] (pH 6.5, 37° C., 0 h), 94%; in data set [3] (pH 6.5, 37° C., 2 h) it was 91%; in data set [3] (pH 6.5, 37° C., 4 h) it was 87%; in data set [3] (pH 6.5, 37° C., 6 h) it was 84%. Besides, the “% Example 15 prodrug” value in data set [3] (pH 6.5, 37° C., 12 h) came out at 73%; in data set [3] (pH 6.5, 37° C., 24 h) it was 56%; in data set [3] (pH 8, 37° C., 12 h), 64%; in data set [3] (pH 10, 37° C., 12 h) it was 0%. The “% Example 1 active ingredient” value in data set [3] (released from Example 15, pH 2, 37° C., 12 h) is 6%; in data set [3] (released from Example 15, pH 4, 37° C., 12 h), 9%; in data set [3] (released from Example 15, pH 6.5, 37° C., 0 h), 3%; in data set [3] (released from Example 15, pH 6.5, 37° C., 2 h) it was 7%; in data set [3] (released from Example 15, pH 6.5, 37° C., 4 h), 10%; in data set [3] (released from Example 15, pH 6.5, 37° C., 6 h) it was 13%. The “% Example 1 active ingredient” value in data set [3] (released from Example 15, pH 6.5, 37° C., 12 h) stood at 22%; in data set [3] (released from Example 15, pH 6.5, 37° C., 24 h), 35%; in data set [3] (released from Example 15, pH 8, 37° C., 12 h) it was 30%; in data set [3] (released from Example 15, pH 10, 37° C., 12 h), 78%. Moreover, the “prodrug compound itself in the plasma of the rats” value in data set [1] (after p.o. administration of Example 15, 1 mg/kg tylose suspension, all times examined) is “not detectable”.

As a reminder, the half-life is the time in which the quantity being followed falls by half.
